Data taken from ChEMBL document CHEMBL1141327, “Planktocyclin, a cyclooctapeptide protease inhibitor produced by the freshwater cyanobacterium Planktothrix rubescens” (J Nat Prod, 2007).
Peptide text beside a SMILES is read from it.

Assays:
[1] = Inhibition of porcine trypsin; design: species or system Sus scrofa
[2] = Inhibition of bovine alpha chymotrypsin; design: species or system Bos taurus
Caspase-8 = Caspase-8 (Homo sapiens, UniProt Q14790); assay: Inhibition of human recombinant caspase 8 expressed in Escherichia coli
Sequence of Caspase-8 (Q14790 217-374 limits assumed): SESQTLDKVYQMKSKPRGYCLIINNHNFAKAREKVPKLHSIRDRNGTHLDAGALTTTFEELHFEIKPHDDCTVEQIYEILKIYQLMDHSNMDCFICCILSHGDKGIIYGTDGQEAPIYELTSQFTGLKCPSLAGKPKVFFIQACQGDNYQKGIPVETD
Sequence of Caspase-8 (Q14790 385-479 limits assumed): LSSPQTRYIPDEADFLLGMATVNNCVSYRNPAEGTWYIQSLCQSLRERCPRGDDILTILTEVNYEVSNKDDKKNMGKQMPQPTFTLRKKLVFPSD

Cathepsin B = Cathepsin B (Bos taurus, UniProt P07688); assay: Inhibition of bovine Cathepsin B

Compound: CSCC[C@@H]1NC(=O)[C@H](C(C)C)NC(=O)[C@H](CC(C)C)NC(=O)CNC(=O)[C@@H]2CCCN2C(=O)[C@H](C(C)C)NC(=O)CNC(=O)[C@H](Cc2ccccc2)NC1=O [PLANKTOCYCLIN] (cyclo(FGVPGLVM))
- IC50 [1]: 0.104 µM
- IC50 [2]: 10 µM
- IC50 (Caspase-8): 93 µM
- IC50 (Cathepsin B): > 500 µM
